Assay results from PubChem BioAssay AID330 (DTP/NCI, 2004).
Values joined by “and” are separate entries in the source; they are usually repeats but may differ in a detail not shown here. Equal values may be shown once. Inconclusive results and toxic doses are left out. Square brackets hold non-standard residues; d marks the D form. Peptide text beside a SMILES is read from it. ξ: configuration not given here. ξN = NC(=O)CC(N)C(=O)O

Test system: P388 leukemia ip, CD2F1 mice, survival T/C
Assay: NCI In Vivo Anticancer Drug Screen. Data for tumor model P388 Leukemia (intraperitoneal) in CD2F1 (CDF1) mice
Details: endpoint: median survival time, higher = longer survival
Method in brief: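 Mice carrying the transplanted tumor received test compound or vehicle. Survival was recorded in each group, and the value is the treated-group measurement divided by that of the vehicle-treated control group.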

[1] = dose: 50.0 mg/kg/injection, schedule: Q01DX009 (ip), vehicle: saline with Tween-80
[2] = dose: 100.0 mg/kg/injection, schedule: Q01DX009 (ip), vehicle: saline with Tween-80
[3] = dose: 200.0 mg/kg/injection, schedule: Q01DX009 (ip), vehicle: saline with Tween-80
[4] = dose: 50.0 mg/kg/injection, schedule: Q01DX009 (ip), vehicle: saline
[5] = dose: 100.0 mg/kg/injection, schedule: Q01DX009 (ip), vehicle: saline
[6] = dose: 200.0 mg/kg/injection, schedule: Q01DX009 (ip), vehicle: saline
[7] = dose: 100.0 mg/kg/injection, schedule: Q01DX009 (ip), vehicle: Klucel (hydroxypropylcellulose) (HPC)

**Q.** For `c1ccc(Cc2ccc[nH]2)cc1`, which T/C (dose: 100.0 mg/kg/injection, schedule: Q01DX001 (ip), vehicle: distilled water + alcohol) is on record?
**A.** 100 % of control

**Q.** And the T/C (dose: 200.0 mg/kg/injection, schedule: Q01DX001 (ip), vehicle: distilled water + alcohol)?
**A.** 98 % of control

**Q.** What about the T/C (dose: 400.0 mg/kg/injection, schedule: Q01DX001 (ip), vehicle: distilled water + alcohol) of the same compound?
**A.** 112 % of control

**Q.** `[I][Pt+2][I].[NH-]CC[NH-]` was tested. Which T/C (dose: 2.75 mg/kg/injection, schedule: Q01DX009 (ip), vehicle: Klucel (hydroxypropylcellulose) (HPC)) did it give?
**A.** 87 % of control

**Q.** And the T/C (dose: 5.5 mg/kg/injection, schedule: Q01DX009 (ip), vehicle: Klucel (hydroxypropylcellulose) (HPC))?
**A.** 117 % of control

**Q.** What about the T/C (dose: 11.0 mg/kg/injection, schedule: Q01DX009 (ip), vehicle: Klucel (hydroxypropylcellulose) (HPC)) of the same compound?
**A.** 109 % of control

**Q.** What about the T/C (dose: 22.0 mg/kg/injection, schedule: Q01DX009 (ip), vehicle: Klucel (hydroxypropylcellulose) (HPC)) of the same compound?
**A.** 111 % of control

**Q.** Which results are given for `C/C=C1\NC(=O)c2csc(n2)C(C(C)C)NC(=O)c2csc(n2)/C(=C/C)NC(=O)C(C(C)O)NC(=O)c2csc(n2)-c2ccc(-c3nc(-c4nc(C(=O)NC(C(=O)NCC(C)O)C(C)O)cs4)cs3)nc2-c2csc1n2` (stereo unspecified)?
**A.** T/C (dose: 0.25 mg/kg/injection, schedule: Q01DX009 (ip), vehicle: Klucel (hydroxypropylcellulose) (HPC)): 107 % of control; T/C (dose: 0.5 mg/kg/injection, schedule: Q01DX009 (ip), vehicle: Klucel (hydroxypropylcellulose) (HPC)): 112 % of control; T/C (dose: 1.0 mg/kg/injection, schedule: Q01DX009 (ip), vehicle: Klucel (hydroxypropylcellulose) (HPC)): 104 % of control; T/C (dose: 2.0 mg/kg/injection, schedule: Q01DX009 (ip), vehicle: Klucel (hydroxypropylcellulose) (HPC)): 103 % of control

**Q.** What does the source list for `CC1=C(Br)S(=O)(=O)N(c2ccccc2)C(CBr)=C1Br`?
**A.** T/C (dose: 60.0 mg/kg/injection, schedule: Q01DX005 (ip), vehicle: saline with Tween-80): 100 % of control; T/C (dose: 120.0 mg/kg/injection, schedule: Q01DX005 (ip), vehicle: saline with Tween-80): 91 % of control; T/C (dose: 240.0 mg/kg/injection, schedule: Q01DX005 (ip), vehicle: saline with Tween-80): 93 % of control

**Q.** Which T/C (dose: 25.0 mg/kg/injection, schedule: Q01DX009 (ip), vehicle: saline with Tween-80) does the source give for `CC(C)N=c1sc(-c2ccccc2)c(C#N)c(=O)n1C(C)C` here?
**A.** 101 % of control

**Q.** What about the T/C [1] of the same compound?
**A.** 103 % of control

**Q.** And the T/C [2]?
**A.** 103 % of control

**Q.** How did the T/C (dose: 1.56 mg/kg/injection, schedule: Q04DX002 (ip), vehicle: water) turn out when `Cc1c2cc[n+](C)c(C)c2cc2c1[nH]c1ccccc12` was run?
**A.** 100 % of control

**Q.** And the T/C (dose: 3.12 mg/kg/injection, schedule: Q04DX002 (ip), vehicle: water)?
**A.** 115 % of control

**Q.** What about the T/C (dose: 6.25 mg/kg/injection, schedule: Q04DX002 (ip), vehicle: water) of the same compound?
**A.** 117 % of control

**Q.** What about the T/C (dose: 10.0 mg/kg/injection, schedule: Q04DX002 (ip), vehicle: water) of the same compound?
**A.** 115 % of control

**Q.** What about the T/C (dose: 12.5 mg/kg/injection, schedule: Q04DX002 (ip), vehicle: water) of the same compound?
**A.** 118 % of control

**Q.** And the T/C (dose: 20.0 mg/kg/injection, schedule: Q04DX002 (ip), vehicle: water)?
**A.** 115 % of control

**Q.** What about the T/C (dose: 25.0 mg/kg/injection, schedule: Q04DX002 (ip), vehicle: water) of the same compound?
**A.** 115 % of control

**Q.** And the T/C (dose: 40.0 mg/kg/injection, schedule: Q04DX002 (ip), vehicle: water)?
**A.** 115 % of control

**Q.** What about the T/C (dose: 50.0 mg/kg/injection, schedule: Q04DX002 (ip), vehicle: water) of the same compound?
**A.** 106 % of control

**Q.** How did the T/C [1] turn out when `Cc1cc(C)c(OC2=C(c3c(C)cc(C)cc3C)C(=O)c3ccccc32)c(C)c1` was run?
**A.** 94 % of control

**Q.** What about the T/C [2] of the same compound?
**A.** 94 % of control

**Q.** And the T/C [3]?
**A.** 86 % of control

**Q.** Which T/C [4] does the source give for `NCC(=O)NC(CC(N)=O)C(=O)O` (stereo unspecified) (H-Gly-[ξN]-OH) here?
**A.** 119 % of control

**Q.** What about the T/C [5] of the same compound?
**A.** 109 % of control

**Q.** What about the T/C [6] of the same compound?
**A.** 114 % of control

**Q.** With `O=C1Cc2ccccc2C(c2ccc(Cl)cc2Cl)N1` (stereo unspecified) as the compound, how does the T/C [4] read?
**A.** 98 % of control

**Q.** What about the T/C [5] of the same compound?
**A.** 98 % of control

**Q.** What about the T/C [6] of the same compound?
**A.** 100 % of control

**Q.** How did the T/C (dose: 12.5 mg/kg/injection, schedule: Q01DX009 (ip), vehicle: Klucel (hydroxypropylcellulose) (HPC)) turn out when `CC(=O)O.CC(=O)O.[S-]CCN1CCOCC1.[Zn+2]` was run?
**A.** 100 % of control

**Q.** What about the T/C (dose: 25.0 mg/kg/injection, schedule: Q01DX009 (ip), vehicle: Klucel (hydroxypropylcellulose) (HPC)) of the same compound?
**A.** 102 % of control

**Q.** How did the T/C (dose: 50.0 mg/kg/injection, schedule: Q01DX009 (ip), vehicle: Klucel (hydroxypropylcellulose) (HPC)) turn out when `CNc1nncc(=O)[nH]1` was run?
**A.** 107 % of control

**Q.** What about the T/C [7] of the same compound?
**A.** 107 % of control

**Q.** And the T/C (dose: 200.0 mg/kg/injection, schedule: Q01DX009 (ip), vehicle: Klucel (hydroxypropylcellulose) (HPC))?
**A.** 99 % of control

**Q.** How did the T/C (dose: 100.0 mg/kg/injection, schedule: Q04DX002 (ip), vehicle: Klucel (hydroxypropylcellulose) (HPC)) turn out when `Cc1ccc(/C2=C(\c3ccc(C)cc3)N(c3ccccc3)CCCCN2c2ccccc2)cc1` was run?
**A.** 99 % of control

**Q.** And the T/C (dose: 200.0 mg/kg/injection, schedule: Q04DX002 (ip), vehicle: Klucel (hydroxypropylcellulose) (HPC))?
**A.** 99 % of control

**Q.** And the T/C (dose: 400.0 mg/kg/injection, schedule: Q04DX002 (ip), vehicle: Klucel (hydroxypropylcellulose) (HPC))?
**A.** 99 % of control

**Q.** For `COc1cc(C(=O)N/N=C/c2cccc([N+](=O)[O-])c2)cc(OC)c1OC`, which T/C [1] is on record?
**A.** 102 % of control and 115 % of control

**Q.** What about the T/C [2] of the same compound?
**A.** 123 % of control

**Q.** And the T/C [3]?
**A.** 163 % of control

**Q.** What about the T/C (dose: 400.0 mg/kg/injection, schedule: Q01DX009 (ip), vehicle: saline with Tween-80) of the same compound?
**A.** 168 % of control

**Q.** `O=C1c2ccccc2C(=O)C1(Br)C(Br)c1ccccc1` (stereo unspecified) was tested. Which T/C [7] did it give?
**A.** 104 % of control

**Q.** And the T/C (dose: 100.0 mg/kg/injection, schedule: Q04DX003 (ip), vehicle: Klucel (hydroxypropylcellulose) (HPC))?
**A.** 104 % of control

**Q.** And the T/C (dose: 200.0 mg/kg/injection, schedule: Q04DX003 (ip), vehicle: Klucel (hydroxypropylcellulose) (HPC))?
**A.** 95 % of control

**Q.** What about the T/C (dose: 400.0 mg/kg/injection, schedule: Q04DX003 (ip), vehicle: Klucel (hydroxypropylcellulose) (HPC)) of the same compound?
**A.** 90 % of control

**Q.** With `CC1C(c2ccccc2)OC2N1CN(C(C)(C)C)CC2(C)C` (stereo unspecified) as the compound, how does the T/C [1] read?
**A.** 100 % of control

**Q.** And the T/C [2]?
**A.** 104 % of control

**Q.** And the T/C [3]?
**A.** 105 % of control

**Q.** For `CCCn1c2nc(=O)n(C)c(=O)c-2cc2ccccc21`, which T/C (dose: 10.0 mg/kg/injection, schedule: Q01DX009 (ip), vehicle: saline with Tween-80) is on record?
**A.** 105 % of control

**Q.** What about the T/C (dose: 20.0 mg/kg/injection, schedule: Q01DX009 (ip), vehicle: saline with Tween-80) of the same compound?
**A.** 116 % of control

**Q.** And the T/C (dose: 40.0 mg/kg/injection, schedule: Q01DX009 (ip), vehicle: saline with Tween-80)?
**A.** 111 % of control

**Q.** How did the T/C (dose: 50.0 mg/kg/injection, schedule: Q01DX005 (ip), vehicle: Klucel (hydroxypropylcellulose) (HPC)) turn out when `Cc1snnc1-c1ccccc1` was run?
**A.** 105 % of control

**Q.** And the T/C (dose: 100.0 mg/kg/injection, schedule: Q01DX005 (ip), vehicle: Klucel (hydroxypropylcellulose) (HPC))?
**A.** 105 % of control

**Q.** What about the T/C (dose: 200.0 mg/kg/injection, schedule: Q01DX005 (ip), vehicle: Klucel (hydroxypropylcellulose) (HPC)) of the same compound?
**A.** 96 % of control

**Q.** Which T/C [4] does the source give for `Cc1ccc(NC(=O)c2cc3ccccc3cc2O)c(C)c1.Cc1ccc(NC(=O)c2cc3ccccc3cc2O)c(C)c1.[Fe+2]` here?
**A.** 92 % of control

**Q.** And the T/C [5]?
**A.** 104 % of control

**Q.** What about the T/C [6] of the same compound?
**A.** 90 % of control

**Q.** Which T/C (dose: 50.0 mg/kg/injection, schedule: Q01DX005 (ip), vehicle: saline with Tween-80) does the source give for `COC(=O)/C=C/CS(C)(=O)=O` here?
**A.** 105 % of control

**Q.** What about the T/C (dose: 100.0 mg/kg/injection, schedule: Q01DX005 (ip), vehicle: saline with Tween-80) of the same compound?
**A.** 101 % of control

**Q.** And the T/C (dose: 200.0 mg/kg/injection, schedule: Q01DX005 (ip), vehicle: saline with Tween-80)?
**A.** 99 % of control
